The nature of this series: Human HepG2 cell viability assay in 384 well format. Type of series: toxicity, cell-based. On the set-up: dose 125 nL, time 70.5 hour; cytotoxicity at 70.5 h: concentration not given beside the values. The note with it: HepG2 cells, read-out: Inhibition.

With `Cc1ccc(Cl)c(CN2CCN(C)C(C(=O)O)C2)c1F` (centres undefined), the cytotoxicity at 70.5 h was -5.85%.
The same measure for `COc1ccc(F)c(CN2CCCC(O)(CNCc3ccon3)C2=O)c1` (centres undefined): 8.61%; for `N#Cc1cccc(N2CCC(c3nccn3Cc3cscn3)CC2)n1`: -2.31%.
The same measure for `O=C(N[C@@H]1CCNC[C@H]1O)c1ccc(-c2ccc(F)cc2)cc1`: -1.9%.
As to `Cc1ccc(-n2ccnc2-c2cn(C3CCNCC3)nn2)c(Cl)c1`, the cytotoxicity at 70.5 h worked out at 2.06%.
The same measure for `Cc1cc(C)n(Cc2cc(C(=O)N[C@H]3CCCCNC3=O)n[nH]2)n1`: -3.71%; for `CCNc1ccnc(N2CCN(Cc3ncccc3C)CC2)n1`: 3.6%; for `CCCn1nc(C)c(CN2CC3(CCOC3)CCC2=O)c1C` (centres undefined): -8.62%.
For the compound `Cc1ccc(OC2(C(=O)O)CCN(C(=O)c3ccccc3F)CC2)cn1`, the cytotoxicity at 70.5 h is -3.34%.
Regarding `CN(C)c1nc(NCCc2ccccn2)ncc1F`, the cytotoxicity at 70.5 h was 25.5%.
The value for `CN1CCN(Cc2c(Cl)ccc(O)c2Cl)CC1C(=O)O` (centres undefined) was -16.7%; that for `CN1CCN(C[C@@H]2CN(C(=O)CCc3cn[nH]c3)C[C@@H]2CO)CC1` was -6.13%.
The same measure for `CN1CCN(C2CCCC2)C(CCO)C1` (centres undefined): -1.81%; for `COc1ccccc1OC1CN(c2ccncc2)C1`: -4.23%; for `CC(C)n1ccnc1C1CCCN(c2cncc(N(C)C)n2)C1` (centres undefined): 2.84%.
The same measure for `Cn1c(Cn2ncc(N3CCCCC3)cc2=O)nc2ccccc21`: 44.3%.
Take `COC(=O)[C@@H](Nc1nc(C2CCCC2)nc2c1cnn2C)[C@@H](C)O`: the cytotoxicity at 70.5 h is -11.8%.
On to `CNc1cc(C)nc(N2CCC3(CC2)[C@H](O)C[C@@H]3OCCN(C)C)n1`, for which the cytotoxicity at 70.5 h is -1.9%.
As to `Cc1n[nH]c(C)c1CCNC(=O)C1CCCN(Cc2ccco2)C1` (centres undefined), the cytotoxicity at 70.5 h was found to be 9.52%.
For the compound `CC[C@H](C)[C@@H](CO)NC(C)Cc1ccc(C)cc1` (some centres undefined), the cytotoxicity at 70.5 h was -2%.
Turning to `CC(=O)c1ccc(N2CCC3(CCC(=O)N(CCCO)C3)CC2)nc1`, the cytotoxicity at 70.5 h was 3.25%.
For the compound `CN1CCN(c2cc(Sc3cccs3)nc(N)n2)CC1CCO` (centres undefined), the cytotoxicity at 70.5 h was -7.97%.
In the case of `Cc1c[nH]c(CN2CC[C@@]3(O)CCN(C(=O)C4CCCC4)C[C@H]3C2)n1`, the cytotoxicity at 70.5 h is 19.2%.
The same measure for `CCC(NC1Cc2ccccc2C1)c1ccc(S(C)(=O)=O)cc1` (centres undefined): -14.8%; for `Cc1csc2c(=O)n(CCSc3cnn[nH]3)cnc12`: -7.83%; for `CCn1cnc(NC(=O)N2CCCC(c3ccccc3)CC2)n1` (centres undefined): -6.51%.
The same measure for `COCCNC(=O)[C@H]1C[C@@](CC(C)C)(C(=O)O)N(C)[C@H]1c1cccnc1`: 1.74%; for `Cc1cccc2nc(C(=O)N3CCC4(CCC(=O)N(C)C4)CC3)c(F)n12`: -11.3%; for `Cn1cc(CN(C(=O)c2ccc3ncsc3c2)C2CC2)cn1`: 19.6%.
The value for `COc1ccccc1OCc1cc(C(=O)N2CCC(NC(C)=O)C2)n[nH]1` (centres undefined) was 2.49%; that for `Cc1noc(C)c1C(=O)N1CCC2(CC1)c1nc[nH]c1CCN2C` was -3.9%; that for `CC(C(=O)N1CCN(CCOc2ccccc2)CC1)n1cc(Cl)cn1` (centres undefined) was -9.22%.
In the case of `CCc1cc(N(C)Cc2ccno2)n2nc(C)c(C)c2n1`, the cytotoxicity at 70.5 h is -2.75%.
The value for `O=C(O)C1(Oc2cccc(F)c2)CCN(c2ccncc2)CC1` was -0.0629%; that for `CC(C)c1cc(N2CCC(C(C)N3CCCC3)CC2)n2nccc2n1` (centres undefined) was -3.16%.
The value for `COCCCC1(CO)CCCN(Cc2cccc(C#N)c2)C1` (centres undefined) was -5.8%; that for `CC(C)(C)CNCC1(O)CCCN(Cc2ccccc2F)C1=O` (centres undefined) was 0.716%; that for `NC(=O)C1CN(c2ncnc3c2Cc2ccccc2OC3)CCO1` (centres undefined) was -3.79%.
The same measure for `CN(Cc1ccncn1)c1nccc(CCC(F)(F)F)n1`: 23%; for `Fc1cc(Cl)cnc1N1CCCC(c2nccn2Cc2ccccn2)C1` (centres undefined): 10.1%; for `CSCCc1n[nH]c2c1CN(S(=O)(=O)c1c(C)nn(C)c1C)CC2`: 17.2%.
Regarding `COc1ccnc(CN2CCCC(CCc3ccccc3)C2)c1OC` (centres undefined), the cytotoxicity at 70.5 h was 3.51%.
The value for `Cc1ccc2cc(C3(O)CCN(C)CC3)ccc2n1` was -0.603%; that for `O=C(c1ccncc1)N1C[C@@H]2CC[C@H](C1)N(S(=O)(=O)c1cccnc1)C2` was -5.9%; that for `CCC(C(=O)N(C)Cc1cc(COC)[nH]n1)n1cccn1` (centres undefined) was -11.5%.
The same measure for `CCNC(=O)C1CN(Cc2c(-c3cc(C)on3)nn(C)c2Cl)CCO1` (centres undefined): 2.76%; for `O=C(c1cccc(Oc2ccccc2)c1)N1CCCC(O)(CO)CC1` (centres undefined): -8.12%; for `Cc1ccc(CN2CCOCS2(=O)=O)cc1F`: -9.79%.
The same measure for `CCn1nc(C)c(CCNC(=O)C2CCCN(C(N)=O)C2)c1C` (centres undefined): 19.9%; for `COc1ccc(C(C(=O)O)N(C)Cc2c(C)nn(C)c2C)c(C)c1` (centres undefined): -10%; for `CCN(Cc1noc(C2CC2)n1)C(=O)c1onc2ccccc12`: -8.65%.
On to `O=C(c1n[nH]cc1Cl)N1CCOC(Cc2cccc(C(F)(F)F)c2)C1` (centres undefined), for which the cytotoxicity at 70.5 h is -4.63%.
The value for `CC(C)c1cc(N2CCSCC2)n2nccc2n1` was 19.1%; that for `COc1ccc(CN2CCN(C(=O)N(C)C)[C@@H]3CS(=O)(=O)C[C@@H]32)cc1F` was 4.21%.
Turning to `CCN1CCCC(c2c(-c3ccccc3)ncn2Cc2cccnc2)C1` (centres undefined), the cytotoxicity at 70.5 h was -9.92%.
With `COCCN1CCCC(O)(CN2CCCN(c3ncccn3)CC2)C1=O` (centres undefined), the cytotoxicity at 70.5 h was 2.84%.
The same measure for `CN(C)CC1(O)CCN(C(=O)c2ccc(-n3cccn3)cc2Cl)C1` (centres undefined): 5.18%.
The same measure for `O=c1cc(CN2C[C@H]3CC[C@@H]2CN(Cc2ccccc2)C3)[nH]c(=O)[nH]1`: 2.22%; for `O=C(NC1CCOC1)c1cccc(S(=O)(=O)NCCCc2ncc[nH]2)c1` (centres undefined): -13.4%; for `COc1coc(CN2CCCC(CCc3ccc(F)c(F)c3)C2)cc1=O` (centres undefined): 15.5%.
On to `Cc1cc(C(F)(F)F)cc(N2CCC3(CCC(=O)N(CCO)C3)CC2)n1`, for which the cytotoxicity at 70.5 h was -4.65%.
The same measure for `Cc1ccc(-c2nnc(CN3CC[C@H](CO)[C@@H](O)C3)o2)n1C`: -2.96%.
For the compound `CC(Cc1cnccn1)NC(=O)COc1ccc(F)cc1F` (centres undefined), the cytotoxicity at 70.5 h is 3.61%.
The same measure for `CCc1cnc(N)nc1NCCn1cc(Cl)cn1`: -6.52%; for `COc1cccc(OC2CN(C(=O)Cn3nc4ccccc4n3)C2)c1`: -5.28%.
For `CN(CCC1CCOCC1)[C@@H]1c2ccccc2C2(CCNCC2)[C@H]1O`, the cytotoxicity at 70.5 h is -4.06%.
The value for `NC(=O)C1CCN(CC(=O)NCCn2cc(Cl)cn2)CC1` was 13.2%.
The same measure for `O=C(c1ccccn1)N1C[C@@H]2CC[C@H](C1)N(C(=O)CCC1CCCC1)C2`: -1.69%.
The value for `COc1ccc(OC)c(CNC2CCCc3nc(N(C)C)ncc32)c1` (centres undefined) was -7.31%.
